This is an account of results in patent publication US20250108048A1, “STING AGONIST COMPOUNDS AND CONJUGATES” (SUTRO BIOPHARMA, INC., priority 2023, published 2025).

The target of assay [1] is T1, hSTING-R232 (Homo sapiens, UniProt Q86WV6, H232R).
T1 construct: host or cells: THP1-Dual KI-hSTING-R232 (from THP1-Dual KO-STING)
In words: THP1-Dual KI-hSTING-R232 reporter assay (IRF pathway, secreted Lucia luciferase). Type of assay: cell-based. Particulars: THP1-Dual KI-hSTING-R232 cells, 24 hours; read-out: Reporter assay EC50 (nM) THP-1-R232. The method, then: (§1) The activities of the STING agonists to activate human or mouse STING pathways were evaluated in THP-1-Dual™, THP1-Dual™ KI-hSTING-R232, THP1-Dual™ KI-hSTING-H232 Cells and THP1-Dual™ KI-mSTING Cells. THP-1-Dual™ cells contains hSTING-HAQ haplotype and can be used to evaluate the activity of STING agonists by monitoring the activation of NF-κB pathway and the […] (IFN regulatory factor) pathways. THP1-Dual™ KO-STING cells were generated from THP1-Dual™ cells by stable knockout of the endogenous HAQ STING gene. THP1-Dual™ KI-hSTING-R232 cells, THP1-Dual™ KI-hSTING-H232 cells and THP1-Dual™ KI-mSTING cells were generated by transfecting THP1-Dual™ KO-STING cells with hSTING-R232 or hSTING-H232 or mSTING. Stimulating these reporter cells with a STING agonist activates TRF pathway and induces the production of a secreted Lucia luciferase in the cell culture medium, which can be determined using QUANTI-Luc™ reagent.
(§2) THP-1-Dual™, THP1-Dual™ KI-hSTING-R232, THP1-Dual™ KI-hSTING-H232 and THP1-Dual™ KI-mSTING reporter cells were purchased from Invivogen and maintained in manufacture recommended culture medium with required supplemental antibiotics. On the day of assay, the cells were harvested with Accutase and counted by the Vi-CELL Cell Viability Analyzers. Cells were resuspended in HEK blue detection medium and a total of 10000 cells were seeded in each well of a 384-well flat bottom plate. […] After incubation at 37° C. in a CO2 incubator for 24 hours, 20 μl of cell culture medium per well was transferred into a 384-well white (opaque) plate. 50 μl of QUANTI-Luc™ assay solution was then added to each well and the plate was immediately transferred to an ENVISION® plate reader to measure luminescence (Perkin-Elmer). Relative luminescence readings were converted to fold change of signal using untreated cells as controls. Data was fitted with non-linear regression analysis, using log (agonist) vs. response, variable slope, 4-parameter fit equation using GraphPad Prism. Data was expressed as fold change in signal vs. dose of STING agonist in nM with error bars indicating the Standard Deviation (SD) of the quadruplicates. There result was reported in Table 2 as EC50 (the midpoint of the curve, or concentration at which […] of the maximum effect was observed).
A general note: Reporter assays use an easily measured gene product as a stand-in for the process of interest.

In assay [2] the target is T2, hSTING-HAQ haplotype (Homo sapiens, UniProt Q86WV6, G230A/H232R/R293Q/R71H).
T2 construct: host or cells: THP-1-Dual
T2 sequence (Q86WV6 whole entry R71H/G230A/H232R/R293Q): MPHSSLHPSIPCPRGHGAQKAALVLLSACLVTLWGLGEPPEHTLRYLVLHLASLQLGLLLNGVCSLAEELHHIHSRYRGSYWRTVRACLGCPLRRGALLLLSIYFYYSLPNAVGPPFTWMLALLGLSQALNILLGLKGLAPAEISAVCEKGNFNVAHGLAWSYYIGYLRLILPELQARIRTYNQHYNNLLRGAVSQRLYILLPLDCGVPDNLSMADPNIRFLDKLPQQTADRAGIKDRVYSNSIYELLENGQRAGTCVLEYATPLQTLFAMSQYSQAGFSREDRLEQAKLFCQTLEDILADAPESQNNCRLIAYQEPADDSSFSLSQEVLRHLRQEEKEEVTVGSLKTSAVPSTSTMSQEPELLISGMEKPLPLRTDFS
In words: THP-1-Dual reporter assay (endogenous hSTING-HAQ). Type of assay: cell-based. Particulars: THP-1-Dual cells (hSTING-HAQ), 24 hours. Here is the method:
as §1, §2

In assay [3] the target is T3, mSTING (Mus musculus, UniProt Q3TBT3).
T3 sequence (Q3TBT3 1-378): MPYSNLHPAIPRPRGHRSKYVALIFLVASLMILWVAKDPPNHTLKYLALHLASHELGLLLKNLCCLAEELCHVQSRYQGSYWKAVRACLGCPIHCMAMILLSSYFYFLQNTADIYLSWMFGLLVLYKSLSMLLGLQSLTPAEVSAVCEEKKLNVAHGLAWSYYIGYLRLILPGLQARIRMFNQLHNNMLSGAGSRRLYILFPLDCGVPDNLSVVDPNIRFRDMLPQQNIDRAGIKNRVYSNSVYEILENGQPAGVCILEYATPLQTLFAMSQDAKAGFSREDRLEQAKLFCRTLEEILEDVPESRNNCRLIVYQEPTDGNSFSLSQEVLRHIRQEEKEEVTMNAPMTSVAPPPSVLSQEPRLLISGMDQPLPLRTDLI
As to the kind of experiment: 293-mSTING reporter assay. Type of assay: cell-based.

The target in assay [4] is hSTING WT (Homo sapiens, UniProt Q86WV6). In words: Surface plasmon resonance, hSTING WT. Type of assay: binding. The conditions noted are these: read-out: hSTING WT SPR (Kd). Background: Surface plasmon resonance follows binding to a sensor surface in real time, without labels.
hSTING WT, sequence (Q86WV6 whole entry H232R): as the sequence (Q86WV6 whole entry R71H/G230A/H232R/R293Q) above, with H71R, A230G, Q293R counted along it
For assay [5], the target named is T4, hSTING H232 (Homo sapiens, UniProt Q86WV6). In words: Surface plasmon resonance, hSTING H232. Type of assay: binding. The conditions noted are these: read-out: hSTING H232 SPR (Kd).
T4 sequence (Q86WV6 whole entry): as the sequence (Q86WV6 whole entry R71H/G230A/H232R/R293Q) above, with H71R, A230G, R232H, Q293R counted along it
Assay [6] deals with hSTING AQ (Homo sapiens, UniProt Q86WV6, G230A/H232R/R293Q). In words: Surface plasmon resonance, hSTING AQ. Type of assay: binding. Particulars: read-out: hSTING AQ SPR (Kd).
hSTING AQ, sequence (Q86WV6 whole entry G230A/H232R/R293Q): as the sequence (Q86WV6 whole entry R71H/G230A/H232R/R293Q) above, with H71R counted along it
The target in assay [7] is T4, hSTING H232. In words: THP1-Dual KI-hSTING-H232 reporter assay (IRF pathway, secreted Lucia luciferase). Type of assay: cell-based. Also noted: host or cells: THP1-Dual KI-hSTING-H232 (from THP1-Dual KO-STING). Particulars: THP1-Dual KI-hSTING-H232 cells, 24 hours; read-out: Reporter assay EC50 (nM) THP-1-H232. Here is the method: as §1, §2
In assay [8] the target is T3, mSTING. As to the kind of experiment: THP1-Dual KI-mSTING reporter assay. Type of assay: cell-based. The arrangement: host or cells: THP1-Dual KI-mSTING (from THP1-Dual KO-STING). Particulars: THP1-Dual KI-mSTING cells, 24 hours; read-out: Reporter assay EC50 (nM) THP-1 mSTING. Here is the method: as §1
THP-1-Dual™, THP1-Dual™ KI-hSTING-R232, THP1-Dual™ KI-hSTING-H232 and THP1-Dual™ KI-mSTING reporter cells were purchased from Invivogen and maintained in manufacture recommended culture medium with required supplemental antibiotics. On the day of assay, the cells were harvested with Accutase and counted by the Vi-CELL Cell Viability Analyzers. Cells were resuspended in HEK blue detection medium and a total of 10000 cells were seeded in each well of a 384-well flat bottom plate. Serial dilutions of STING agonists free drugs (1:3 serial dilution starting from 5 uM) was added into treatment wells. After incubation at 37° C. in a CO2 incubator for 24 hours, 20 μl of cell culture medium per well was transferred into a 384-well white (opaque) plate. 50 μl of QUANTI-Luc™ assay solution was then added to each well and the plate was immediately transferred to an ENVISION® plate reader to measure luminescence (Perkin-Elmer). Relative luminescence readings were converted to fold change of signal using untreated cells as controls. Data was fitted with non-linear regression analysis, using log (agonist) vs. response, variable slope, 4-parameter fit equation using GraphPad Prism. Data was expressed as fold change in signal vs. dose of STING agonist in nM with error bars indicating the Standard Deviation (SD) of the quadruplicates. There result was reported in Table 2 as EC50 (the midpoint of the curve, or concentration at which […] of the maximum effect was observed).

pKd: −log10 of the molar value.

T1 sequence (Q86WV6 whole entry H232R): as the sequence (Q86WV6 whole entry R71H/G230A/H232R/R293Q) above, with H71R, A230G, Q293R counted along it

By EC50 is commonly meant the concentration that produces a half-maximal response. What is called pKd is the Kd on a negative log10 scale, so that one unit is a factor of ten. Regarding `CCn1nc(C)cc1C(=O)Nc1nc2cc(C(N)=O)ccc2n1C/C=C/Cn1c(NC(=O)c2cc(C)nn2CC)nc2cc(C(N)=O)cc(OCCCN3CC4(C3)CN(C(=O)CON=C(C)c3ccc(C[C@H](N)C(=O)O)cc3)CCO4)c21` (racemic) [LP-1-4, rac-(2S)-2-amino-3-[4-[N-[2-[2-[3-[6-carbamoyl-2-[(2-ethyl-5-methyl-pyrazole-3-carbonyl)amino]-3-[rac-(E)-4-[5-carbamoyl-2-[(2-ethyl-5-methyl-pyrazole-3-carbonyl)amino]benzimidazol-1-yl]but-2-enyl]benzimidazol-4-yl]oxypropyl]-5-oxa-2,8-diazaspiro[3.5]nonan-8-yl]-2-oxo-ethoxy]-C-methyl-carbonimidoyl]phenyl]propanoic acid], the EC50 in assay [1], in assay [2], in assay [3] and in assay [7] was above 150 nM each time. The negative logarithm of the Kd (pKd) in assay [4], in assay [5] and in assay [6] was at least 7.70 each time.
For `CCn1nc(C)cc1C(=O)Nc1nc2cc(C(N)=O)cc(OC)c2n1C/C=C/Cn1c(N2CCn3nc(C)cc3C2=O)nc2cc(C(N)=O)cc(OCCCN3CC4(CNCCO4)C3)c21` [Compound 5, 1-[(E)-4-[5-Carbamoyl-2-(2-methyl-4-oxo-6,7-dihydropyrazolo[1,5-a]pyrazin-5-yl)-7-[3-(5-oxa-2,8-diazaspiro[3.5]nonan-2-yl)propoxy]benzimidazol-1-yl]but-2-enyl]-2-[(2-ethyl-5-methyl-pyrazole-3-carbonyl)amino]-7-methoxy-benzimidazole-5-carboxamide], the EC50 in assay [1], in assay [2], in assay [8] and in assay [7] was above 150 nM each time. Also, the negative-log Kd (pKd) in assay [4], in assay [5] and in assay [6] was at most 7.70 in each case.
Take `CCn1nc(C)cc1C(=O)Nc1nc2cc(C(N)=O)cc(OC)c2n1C/C=C/Cn1c(NC(=O)Cc2cc(C)nn2C)nc2cc(C(N)=O)cc(OCCCN3CC4(CNCCO4)C3)c21` [Compound 8]: the EC50 in assay [1], in assay [2], in assay [8] and in assay [7] was above 150 nM throughout. Besides, the pKd in assay [4], in assay [5] and in assay [6] was at most 7.70 throughout.
In the case of `CCc1nc(C)oc1C(=O)Nc1nc2cc(C(N)=O)cc(OCCCN3CC4(C3)CN(C(=O)[C@@H](N)CC(C)C)CCO4)c2n1C/C=C/Cn1c(NC(=O)c2cc(C)nn2CC)nc2cc(C(N)=O)cc(OC)c21` [Compound 17], the EC50 in assay [1], in assay [2], in assay [8] and in assay [7] was at most 50 nM throughout. The pKd in assay [4], in assay [5] and in assay [6] was at least 7.70 throughout.
`CCn1nc(C)cc1C(=O)Nc1nc2cc(C(N)=O)cnc2n1C/C=C/Cn1c(NC(=O)c2cc(C)nn2CC)nc2cc(C(N)=O)cc(OCCCN3CCC(c4nnc5n4CCNC5)CC3)c21` [Compound 21]: the EC50 in assay [1] is 50 to 150 nM; in assay [2], above 150 nM; in assay [8] it was above 150 nM; in assay [7], 50 to 150 nM. The negative logarithm of the Kd (pKd) in assay [4], in assay [5] and in assay [6] was at least 7.70 each time.
`CCn1nc(C)cc1C(=O)Nc1nc2cc(C(N)=O)cnc2n1CCCCn1c(NC(=O)c2cc(C)nn2CC)nc2cc(C(N)=O)cc(OCCCN3CCC(c4nnc5n4CCNC5)CC3)c21` [Compound 22]: the concentration for a half-maximal effect (EC50) in assay [1], in assay [2], in assay [8] and in assay [7] was above 150 nM in each case. Also, the pKd in assay [4], in assay [5] and in assay [6] was at least 7.70 in each case.
As to `CCn1nc(C)cc1C(=O)Nc1nc2cc(C(N)=O)ccc2n1C/C=C/Cn1c(NC(=O)c2cc(C)nn2CC)nc2cc(C(N)=O)cc(OCCCN3CC4(C3)CN(C(=O)[C@H](CC(C)C)NC(=O)CCCCCO/N=C(\C)c3ccc(C[C@H](N)C(=O)O)cc3)CCO4)c21` [LP-2-3], the 50% effective concentration (EC50) is 50 to 150 nM in assay [1], above 150 nM in assay [2], above 150 nM in assay [8] and 50 to 150 nM in assay [7]. Moreover, the pKd in assay [4], in assay [5] and in assay [6] was at least 7.70 each time.
Regarding `CCn1nc(C)cc1C(=O)Nc1nc2cc(C(N)=O)cc(OC)c2n1C/C=C/Cn1c(NC(=O)c2cc(C)nn2CC)nc2cc(C(N)=O)cc(OCCCN3CC4(C3)CN(C(=O)CCCCCON)CCO4)c21` [LP-6-1], the EC50 in assay [1], in assay [2], in assay [8] and in assay [7] was at most 50 nM throughout. In addition, the negative-log Kd (pKd) in assay [4], in assay [5] and in assay [6] was at least 7.70 throughout.
Turning to `CCc1nc(C)oc1C(=O)Nc1nc2cc(C(N)=O)cnc2n1C/C=C/Cn1c(NC(=O)c2oc(C)nc2CC)nc2cc(C(N)=O)cc(OCCCO)c21` [Reference Compd B, reference compound], the 50% effective concentration (EC50) in assay [1] is at most 50 nM; in assay [2] it was above 150 nM; in assay [8], at most 50 nM; in assay [7] it was at most 50 nM. In addition, the pKd in assay [4], in assay [5] and in assay [6] was at least 7.70 each time.
